Target: T1, Mucosa-associated lymphoid tissue lymphoma translocation protein 1 (Homo sapiens, UniProt Q9UDY8)
T1 sequence (Q9UDY8 whole entry): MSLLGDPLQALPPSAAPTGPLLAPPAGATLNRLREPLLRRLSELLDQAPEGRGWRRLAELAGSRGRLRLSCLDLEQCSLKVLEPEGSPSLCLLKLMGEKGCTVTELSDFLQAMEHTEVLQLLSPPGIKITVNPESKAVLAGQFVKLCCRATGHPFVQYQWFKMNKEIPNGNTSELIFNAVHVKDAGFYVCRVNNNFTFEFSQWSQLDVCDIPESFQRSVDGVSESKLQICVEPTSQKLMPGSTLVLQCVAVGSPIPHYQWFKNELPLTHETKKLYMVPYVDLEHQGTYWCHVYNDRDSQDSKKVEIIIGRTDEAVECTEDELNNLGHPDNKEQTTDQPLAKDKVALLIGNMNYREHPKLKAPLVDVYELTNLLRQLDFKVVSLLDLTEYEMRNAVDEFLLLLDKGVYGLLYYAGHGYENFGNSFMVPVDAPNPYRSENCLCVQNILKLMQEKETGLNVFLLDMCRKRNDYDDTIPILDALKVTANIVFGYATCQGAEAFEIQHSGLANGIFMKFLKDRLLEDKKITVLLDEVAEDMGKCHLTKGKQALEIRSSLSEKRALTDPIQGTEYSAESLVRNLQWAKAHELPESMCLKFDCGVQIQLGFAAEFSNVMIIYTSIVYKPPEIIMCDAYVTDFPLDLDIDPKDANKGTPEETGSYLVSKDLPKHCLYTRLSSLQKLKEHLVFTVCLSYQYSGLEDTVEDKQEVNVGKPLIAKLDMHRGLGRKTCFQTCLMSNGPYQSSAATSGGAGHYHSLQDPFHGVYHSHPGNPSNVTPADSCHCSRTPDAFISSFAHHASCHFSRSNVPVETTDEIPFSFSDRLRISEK
Assay: The assay buffer consists of 200 mM Tris/HCl at pH 7.5, 0.8 M Na citrate, 100 μM EGTA, 100 μM DTT and 0.05% (w/v) CHAPS. […] Test compounds were dissolved in 100% (v/v) DMSO or a mixture containing 90% (v/v) DMSO and 10% (v/v) H2O at a stock concentration of 100 mM. Serial dilutions of test compounds were prepared using either 100% (v/v) DMSO or a mixture containing 90% (v/v) DMSO and 10% (v/v) H2O.

- IC50: 5 nM
Structure (SMILES): CCOc1ncc(NC(=O)Nc2cnc3cc(Cl)nn3c2C(C)C)cc1Cl

From ChEMBL document CHEMBL5726596, “Pyrazolo pyrimidine derivatives and their use as MALT1 inhibitors” (2017)
